Molecules are shown by their SMILES.

The nature of this series: in vitro. The note with it: human, hek293t cells.
In general, viability refers to a read-out of living cells in per cent, often relative to untreated cells. As to `C=CC(=O)NCCC(=O)N1CCSC(C)(C)C1` [3-G18, N-[3-(2,2-dimethylthiomorpholin-4-yl)-3-oxopropyl]prop-2-enamide], the viability at 48 h, 25 µM worked out at 101%.
Then `C=CC(=O)NCCC(=O)N1CCC(C)(C)S(=O)(=O)CC1` [3-G19, N-[3-(7,7-dimethyl-1,1-dioxo-1lambda6,4-thiazepan-4-yl)-3-oxopropyl]prop-2-enamide], with 41.2%; and `C=CC(=O)NCC1CCN(Cc2ccccc2)CC1C` (stereo not drawn) [3-G20, N-[(1-benzyl-3-methylpiperidin-4-yl)methyl]prop-2-enamide], with 94.1%.
Turning to `C=CC(=O)N1CCCC(CNS(=O)(=O)C2CC2)C1` (stereo not drawn) [3-G21, N-{[1-(prop-2-enoyl)piperidin-3-yl]methyl}cyclopropanesulfonamide], the viability at 48 h, 25 µM stood at 50.6%.
For `C=CC(=O)NCCc1nnc(C)s1` [3-G22, N-[2-(5-methyl-1,3,4-thiadiazol-2-yl)ethyl]prop-2-enamide], the viability at 48 h, 25 µM was 78.3%.
On to `C=CC(=O)N1CCC(C(=O)NCc2cc(C)c[nH]c2=O)CC1` [3-H03, N-[(5-methyl-2-oxo-1,2-dihydropyridin-3-yl)methyl]-1-(prop-2-enoyl)piperidine-4-carboxamide], for which the viability at 48 h, 25 µM came to 81.3%.
With `C=CC(=O)N1CCC(C(=O)OCC)(S(C)(=O)=O)CC1` [3-H04, ethyl 4-methanesulfonyl-1-(prop-2-enoyl)piperidine-4-carboxylate] the figure was 93.3%.
Consider `C=CC(=O)N1CCC(C(=O)NCc2ncccc2OC)CC1` [3-H05, N-[(3-methoxypyridin-2-yl)methyl]-1-(prop-2-enoyl)piperidine-4-carboxamide], for which the viability at 48 h, 25 µM was 73.5%.
For `C=CC(=O)Nc1ccc(N(C)S(=O)(=O)CC)cc1` [3-H06, N-[4-(N-methylethanesulfonamido)phenyl]prop-2-enamide], the viability at 48 h, 25 µM turned out to be 87.8%.
With `C=CC(=O)N1CCC(C(=O)NC2(CO)CCSCC2)CC1` [3-H07, N-[4-(hydroxymethyl)thian-4-yl]-1-(prop-2-enoyl)piperidine-4-carboxamide], the viability at 48 h, 25 µM was 67.5%.
Regarding `C=CC(=O)N(C)CC(=O)Nc1ccc(N2C[C@@H](C)O[C@@H](C)C2)cc1` [3-H08, N-[({4-[(2R,6S)-2,6-dimethylmorpholin-4-yl]phenyl}carbamoyl)methyl]-N-methylprop-2-enamide], the viability at 48 h, 25 µM came out at 94.9%.
Turning to `C=CC(=O)N1CCOC(c2nccs2)C1` (stereo not drawn) [3-H09, 1-[2-(1,3-thiazol-2-yl)morpholin-4-yl]prop-2-en-1-one], the viability at 48 h, 25 µM was found to be 69.4%.
As for `C=CC(=O)Nc1ccccc1-n1nccn1` [3-H10, N-[2-(2H-1,2,3-triazol-2-yl)phenyl]prop-2-enamide], the viability at 48 h, 25 µM came out at 73.2%.
Regarding `C=CC(=O)NCc1ncnn1-c1ccccc1` [3-H11, N-[(1-phenyl-1H-1,2,4-triazol-5-yl)methyl]prop-2-enamide], the viability at 48 h, 25 µM was 63.1%.
Take `C=CC(=O)N1CCC(C(=O)NC2(Cc3ccccc3)CCCC2)CC1` [3-H12, N-(1-benzylcyclopentyl)-1-(prop-2-enoyl)piperidine-4-carboxamide]: the viability at 48 h, 25 µM stood at 83.4%.
For `C=CC(=O)NC1(c2nc(C3CC3)cc(=O)[nH]2)CCCCC1` [3-H13, N-[1-(4-cyclopropyl-6-oxo-1,6-dihydropyrimidin-2-yl)cyclohexyl]prop-2-enamide], the viability at 48 h, 25 µM amounted to 68.3%.
As to `C=CC(=O)Nc1ccc2occc2c1` [3-H14, N-(1-benzofuran-5-yl)prop-2-enamide], the viability at 48 h, 25 µM came out at 99.9%.
With `C=CC(=O)NCc1noc(-c2cccs2)n1` [3-H15, N-{[5-(thiophen-2-yl)-1,2,4-oxadiazol-3-yl]methyl}prop-2-enamide], the viability at 48 h, 25 µM stood at 93.9%.
Then `C=CC(=O)NCc1ccc(-n2ccc(C)n2)nc1` [3-H16, N-{[6-(3-methyl-1H-pyrazol-1-yl)pyridin-3-yl]methyl}prop-2-enamide], with 99.7%; and `C=CC(=O)Nc1ccccc1C(=O)N(C)C(C)C` [3-H17, N-methyl-2-(prop-2-enamido)-N-(propan-2-yl)benzamide], with 66.9%; and `C=CC(=O)N1CCS(=O)(=O)N2CCCC12` (stereo not drawn) [3-H18, 1-(prop-2-enoyl)-hexahydro-1H-4lambda6-pyrrolo[1,2-b][1,2,4]thiadiazine-4,4-dione], with 93.3%.
On to `C=CC(=O)NCCCN1CCCS1(=O)=O` [3-H19, N-[3-(1,1-dioxo-1lambda6,2-thiazolidin-2-yl)propyl]prop-2-enamide], for which the viability at 48 h, 25 µM was determined as 88.4%.
For `C=CC(=O)NC(c1ccc(F)cc1)C1CC1` (stereo not drawn) [3-H20, N-[cyclopropyl(4-fluorophenyl)methyl]prop-2-enamide], the viability at 48 h, 25 µM amounted to 89.2%.
For the compound `C=CC(=O)NCc1ccnn1C1CCCC1` [3-H21, N-[(1-cyclopentyl-1H-pyrazol-5-yl)methyl]prop-2-enamide], the viability at 48 h, 25 µM amounted to 74.5%.
Then `C=CC(=O)NCc1ccccc1S(=O)(=O)N1CCOCC1` [3-H22, N-{[2-(morpholine-4-sulfonyl)phenyl]methyl}prop-2-enamide], with 89.1%.
Regarding `C=CC(=O)Nc1cnn(-c2ccccc2)c1C(F)F` [3-I03, N-[5-(difluoromethyl)-1-phenyl-1H-pyrazol-4-yl]prop-2-enamide], the viability at 48 h, 25 µM was determined as 41.7%.
In the case of `C=CC(=O)NCc1ccc(C(=O)N2CCNC(=O)CC2)cc1` [3-I04, N-{[4-(5-oxo-1,4-diazepane-1-carbonyl)phenyl]methyl}prop-2-enamide], the viability at 48 h, 25 µM was 93.2%.
`C=CC(=O)N(CC)Cc1cccc2c1OCO2` [3-I05, N-[(1,3-dioxaindan-4-yl)methyl]-N-ethylprop-2-enamide]: the viability at 48 h, 25 µM was found to be 47.8%.
As to `C=CC(=O)NCc1ccc(C(=O)N2CCCC23CCOC3=O)cc1` (stereo not drawn) [3-I06, N-[(4-{6-oxo-7-oxa-1-azaspiro[4.4]nonane-1-carbonyl}phenyl)methyl]prop-2-enamide], the viability at 48 h, 25 µM stood at 88.5%.
On to `C=CC(=O)N1CCC(c2noc3cc(F)ccc23)CC1` [3-I07, 1-[4-(6-fluoro-1,2-benzoxazol-3-yl)piperidin-1-yl]prop-2-en-1-one], for which the viability at 48 h, 25 µM was determined as 48.2%.
`C=CC(=O)N(CC)CC(=O)N1CCCC(N2CCCS2(=O)=O)C1` (stereo not drawn) [3-I08, N-{2-[3-(1,1-dioxo-1lambda6,2-thiazolidin-2-yl)piperidin-1-yl]-2-oxoethyl}-N-ethylprop-2-enamide]: the viability at 48 h, 25 µM was found to be 91.2%.
As to `C=CC(=O)N(C)Cc1cc2ccccc2o1` [3-I09, N-[(1-benzofuran-2-yl)methyl]-N-methylprop-2-enamide], the viability at 48 h, 25 µM amounted to 47.1%.
Consider `C=CC(=O)N1CCC(C(=O)NCc2nccn2C)(c2ccccc2)CC1` [3-I10, N-[(1-methyl-1H-imidazol-2-yl)methyl]-4-phenyl-1-(prop-2-enoyl)piperidine-4-carboxamide], for which the viability at 48 h, 25 µM was found to be 92.9%.
With `C=CC(=O)N1CCOC2(CCCC2)C1` [3-I11, 1-{6-oxa-9-azaspiro[4.5]decan-9-yl}prop-2-en-1-one], the viability at 48 h, 25 µM turned out to be 44.3%.
Regarding `C=CC(=O)N1CC(C)OC2(CCOCC2)C1` (stereo not drawn) [3-I12, 1-{2-methyl-1,9-dioxa-4-azaspiro[5.5]undecan-4-yl}prop-2-en-1-one], the viability at 48 h, 25 µM was determined as 91.6%.
For the compound `C=CC(=O)N1CCC(C(=O)Nc2nc3cc(F)ccc3n2CC)CC1` [3-I13, N-(1-ethyl-5-fluoro-1H-1,3-benzodiazol-2-yl)-1-(prop-2-enoyl)piperidine-4-carboxamide], the viability at 48 h, 25 µM came to 62.5%.
With `C=CC(=O)N(C)CC(=O)NC(C)c1ncc(C)s1` (stereo not drawn) [3-I14, N-methyl-N-({[1-(5-methyl-1,3-thiazol-2-yl)ethyl]carbamoyl}methyl)prop-2-enamide], the viability at 48 h, 25 µM is 69.4%.
Regarding `C=CC(=O)N1CC(OCc2ccccc2F)C1` [3-I15, 1-{3-[(2-fluorophenyl)methoxy]azetidin-1-yl}prop-2-en-1-one], the viability at 48 h, 25 µM is 40.4%.
Turning to `C=CC(=O)N1CCN(Cc2ncon2)CC1` [3-I16, 1-{4-[(1,2,4-oxadiazol-3-yl)methyl]piperazin-1-yl}prop-2-en-1-one], the viability at 48 h, 25 µM turned out to be 106%.
With `C=CC(=O)N1CCC(C(=O)NC2CCCc3nc(C)ncc32)CC1` (stereo not drawn) [3-I17, N-(2-methyl-5,6,7,8-tetrahydroquinazolin-5-yl)-1-(prop-2-enoyl)piperidine-4-carboxamide] the figure was 32%.
For `C=CC(=O)N1CC[C@H](Oc2ccccc2)C1` [3-I18, 1-[(3S)-3-phenoxypyrrolidin-1-yl]prop-2-en-1-one], the viability at 48 h, 25 µM amounted to 103%.
`C=CC(=O)N1CCOCC1c1ccnn1C` (stereo not drawn) [3-I19, 1-[3-(1-methyl-1H-pyrazol-5-yl)morpholin-4-yl]prop-2-en-1-one]: the viability at 48 h, 25 µM worked out at 49.7%.
With `C=CC(=O)NCc1ccc(N2CCN(C)CC2)cc1` [3-I20, N-{[4-(4-methylpiperazin-1-yl)phenyl]methyl}prop-2-enamide], the viability at 48 h, 25 µM came to 112%.
In the case of `C=CC(=O)N1CCC(C(=O)NC2CCN(C(=O)C(C)(C)C)CC2)CC1` [3-I21, N-[1-(2,2-dimethylpropanoyl)piperidin-4-yl]-1-(prop-2-enoyl)piperidine-4-carboxamide], the viability at 48 h, 25 µM came out at 52.8%.
On to `C=CC(=O)N1CCC(c2nc3c(s2)CCC3)CC1` [3-I22, 1-(4-{4H,5H,6H-cyclopenta[d][1,3]thiazol-2-yl}piperidin-1-yl)prop-2-en-1-one], for which the viability at 48 h, 25 µM stood at 91.2%.
With `C=CC(=O)N1CCC(C(=O)NCCn2c(=O)[nH]c3ccccc32)CC1` [3-J03, N-[2-(2-oxo-2,3-dihydro-1H-1,3-benzodiazol-1-yl)ethyl]-1-(prop-2-enoyl)piperidine-4-carboxamide] the figure was 72.2%; with `C=CC(=O)Nc1cc(NC(=O)c2ccc([N+](=O)[O-])o2)ccc1F` [3-J04, N-[4-fluoro-3-(prop-2-enamido)phenyl]-5-nitrofuran-2-carboxamide], 0.415%.
`C=CC(=O)N1CCC(C(=O)Nc2c[nH]c(=O)c(C)c2)CC1` [3-J05, N-(5-methyl-6-oxo-1,6-dihydropyridin-3-yl)-1-(prop-2-enoyl)piperidine-4-carboxamide]: the viability at 48 h, 25 µM was 51.5%.

The values above are taken from publication PMC11995724, “Antibiotic target discovery by integrated phenotypic and activity-based profiling of electrophilic fragments” (Cell chemical biology, 2025).
